These results are taken from article PMC6627609, “Targeting Quorum Sensing: High-Throughput Screening to Identify Novel LsrK Inhibitors” (International Journal of Molecular Sciences, 2019).

Where “and” joins values, the source holds several entries; their conditions need not be identical. Identical values can stand only once.

The conditions of series [1]: cited from earlier work.
Another series addresses LsrK (Salmonella typhimurium, UniProt Q8ZKQ6). Description: biochemical. Type of series: biochemical, S. typhimurium.
Series [2] deals with T1, His-LsrK (Salmonella typhimurium, UniProt Q8ZKQ6). Briefly: MST assay. Type of series: binding, S. typhimurium. The following applies: 95% CI.
T1 sequence (Q8ZKQ6 whole entry): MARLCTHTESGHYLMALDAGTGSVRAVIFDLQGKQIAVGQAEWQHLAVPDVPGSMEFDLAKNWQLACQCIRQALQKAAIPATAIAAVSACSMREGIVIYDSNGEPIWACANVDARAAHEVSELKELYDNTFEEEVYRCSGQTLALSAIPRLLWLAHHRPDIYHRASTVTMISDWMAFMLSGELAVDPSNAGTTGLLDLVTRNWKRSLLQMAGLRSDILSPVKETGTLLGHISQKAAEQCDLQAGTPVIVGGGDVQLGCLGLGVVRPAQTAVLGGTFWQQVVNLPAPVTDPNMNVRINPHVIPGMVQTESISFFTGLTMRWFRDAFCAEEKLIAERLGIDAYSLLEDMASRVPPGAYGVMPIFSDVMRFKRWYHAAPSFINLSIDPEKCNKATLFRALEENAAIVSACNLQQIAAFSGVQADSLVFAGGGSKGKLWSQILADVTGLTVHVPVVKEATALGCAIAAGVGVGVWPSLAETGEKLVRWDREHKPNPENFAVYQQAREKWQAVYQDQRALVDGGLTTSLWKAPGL
Series [3] deals with T1, His-LsrK. Briefly: Thermal shift assay. Type of series: binding, S. typhimurium. The following applies: dose range of test compound. Here is the method:
Compounds were added to qPCR plates by Echo acoustic dispenser with a DMSO backfill to maintain a constant final concentration of DMSO in each well (the assay is tolerant up to 8% DMSO with no effect on Tm of LsrK). LsrK protein was added at a concentration of 1 µg per well in a volume of 10 µL with 1× Thermo thermal shift dye or 5× Sypro Orange dye (used for aurin tricarboxylic acid as this compound fluoresces with Thermo dye in 25 mM TEA, 200 µM MgCl2, pH 7.1). Appropriate DMSO-only negative controls and 1 mM ATP/DMSO positive controls were included in each test occasion. Using an Applied Biosystems Quant Studio 5 qPCR machine (Thermo Fisher Scientific, Waltham, MA, USA) the following thermal shift protocol was used: step 1—hold at 25 °C for 1 min; step 2—heat at 0.05 °C/s dissociation then hold at 99 °C for 1 min. Filter setting for Thermo dye: Ex/Em 580/623 nm and for Sypro Orange dye: Ex/Em 470/520 nm.

For series [4], the system named is His-tagged control peptide or SDS denatured His-LsrK. Description: MST assay, specificity controls. Type of series: binding.
The subject of another series is E. coli LW7 pLW11. Briefly: AI-2 QS interference assay. The series is classed as cell-based. The following applies: for IC50: dose-response in the presence of PAβN, read-out: IC50 AI-2 QS inhibition.
In the next series the test system is E. coli pBAC-lacZ. Description: Control strain β-gal assay (QS-independent lac promoter). Type of series: cell-based.

Chain of LsrK (Q8ZKQ6 whole entry): as above

By IC50 is commonly meant the point on the concentration scale where inhibition reaches its midpoint. Broadly, the inhibition is the drop in the measured response relative to a control, in per cent. Regarding `CC1=C(O)C(=O)C=C2C1=CC=C1[C@@]2(C)CC[C@@]2(C)[C@@H]3C[C@](C)(C(=O)O)CC[C@]3(C)CC[C@]12C` [CELASTROL], in series [1], the solubility entry is on record as “poor solubility”. Besides, on LsrK, the IC50 amounted to 4 µM and the inhibition at 50 µM was found to be 109%.

Usually Kd stands for the constant that tells how readily two partners part at equilibrium. A higher Kd goes with lower affinity. As for `C[C@]1(OC(=O)/C=C/c2ccccc2)C[C@@H](O)[C@]2(O)C=CO[C@@H](O[C@@H]3O[C@H](CO)[C@@H](O)[C@H](O)[C@H]3O)[C@@H]21` [HARPAGOSIDE], at His-LsrK [2], the Kd stood at 18.4 ± 0.9 µM. In addition, the “shift in the Tm of His-LsrK (in words)” value on His-LsrK [3] is “significant, dose-dependent, positive shift in the Tm”. In series [4], the “binding in MST to control peptide or SDS denatured His-LsrK” value is on record as “No binding”. For the same molecule, the figures for the IC50 against LsrK and in the series with E. coli LW7 pLW11 (Escherichia coli) were 10 µM and 14 µM, respectively. In addition, the inhibition at 50 µM against LsrK was 108%; in the series on E. coli LW7 pLW11 (Escherichia coli, 50 µM, in the presence of PAβN, read-out: inhibition of AI-2 mediated QS), approximately 50%. In the series with E. coli LW7 pLW11 (10 µM, in the presence of PAβN), the “inhibition of AI-2 mediated QS” value is “only minor”.

In the case of `O=C1C=CC(=C(c2ccc(O)cc2)c2ccc(O)cc2)C=C1` [ROSOLIC ACID], at His-LsrK [2], the Kd was 100 µM and ~100 µM. Also, the “effect on β-gal expression or activity in the control strain” value with E. coli pBAC-lacZ was “marginally affected”. Also, the “shift in the Tm of His-LsrK (in words)” value at His-LsrK [3] is listed as “positively stabilizes His-LsrK in thermal shift at high concentrations”. Further, the “binding in MST to control peptide or SDS denatured His-LsrK” value in series [4] is “No binding”. Moreover, on LsrK, the IC50 was found to be 1 µM and the inhibition at 50 µM came out at 119%. In the series on E. coli LW7 pLW11 (50 µM, in the presence of PAβN), the “inhibition of AI-2 mediated QS” value was “nearly complete inhibition”. In addition, the inhibition at 10 µM in the series on E. coli LW7 pLW11 (Escherichia coli, 10 µM, in the presence of PAβN, read-out: inhibition of AI-2 mediated QS) amounted to 68%. For the same molecule, in the series on E. coli LW7 pLW11 (Escherichia coli), the IC50 worked out at 11 µM.
